Experimental findings from patent US9340559B2, “Proteasome inhibitor delanzomib for use in the treatment of lupus” (Cephalon, Inc., priority 2011, dated 2016) are described below.

For series [1], the system named is NZM mice. Put plainly: Serum C3 complement ELISA, NZM mice (Example 2).
For series [2], the system named is NZM mice. Put plainly: Antibody secreting B-cell Elispot (anti-chromatin, total IgG ASC), spleens of NZM mice (Example 2). The format is in vivo, mouse. Here is the method: FIG. 34 depicts the frequency of anti-chromatin antibody secreting cells in the spleens of NZM mice. NZM treated mice spleens were processed for splenocytes for ex vivo Elispot assays. Elispot wells were coated with 10 μg/mL of boiled chicken chromatin or ovalbumin protein. Fresh, whole splenocytes were added to each well at 50,000 cells per well in cell culture medium. Cells were incubated overnight at 37° C. Developed wells provided spots that were counted as frequency of ASCs per million splenocytes.
FIG. 35 depicts the frequency of total IgG antibody secreting cells in the spleens of NZM mice. NZM treated mice spleens were processed for splenocytes for ex vivo Elispot assays. Elispot wells were coated with 10 μg/mL of anti-mouse IgG, IgH, and IgL chains. Fresh, whole splenocytes were added to each well at 50,000 cells per well in cell culture medium. Cells were incubated overnight at 37° C. Developed wells provided spots that were counted as frequency of ASCs per million splenocytes.
B-cell Elispot components are ordered from MabTech (Nacka Strand, Sweden) and nitrocellulose IP filter plates are ordered from Millipore (Billerica, Mass.). Elispot wells are coated with either purified bovine thymus dsDNA (Sigma), purified bovine Smith antigen (GenWay) or boiled filtered purified chicken chromatin from lysed chicken red blood cells (Rockland, Gilbertsville, Pa.) at 10 μg/mL. Spleens are processed using glass homogenization (frosted slides). Dispersed cell contents are washed in sterile HBSS and RBCs lysed using 1×RBC lysis buffer (BioLegend, Cat #420301). Processed splenocytes are added to each well and are not stimulated with lipopolysaccharide (LPS) to avoid skewing of true ex vivo frequencies of antibody-secreting cell types (ASCs). Anti-mouse pan-IgG is used as a positive control for total IgG producing ASCs and is used to normalize results. Frequencies for each antigen are identified in an initial test phase for each model. For chromatin and total IgG only, 30,000 splenocytes are added to each well; for Smith antigen and dsDNA, 500,000 cells are added to each well. Different numbers of splenocytes are added for different antigens due to saturation limits of spot frequencies per well. B-cell Elispots are incubated overnight at 37° C. To develop each assay, secondary antibody is added to each well, incubated, washed and alkaline phosphatase strepavidin (Jackson ImmunoResearch, West Grove, Pa.) is used as the conjugate; substrate used is BCIP-NBT (MabTech, Cincinnati, Ohio). Plates are developed until spots are visible. All Elispot analyses are performed using an Immunospot C.T.L. scanner and Biospot software (Cellular Technology Ltd., Shaker Heights, Ohio). Results are shown as values from which media and cells only wells are subtracted. Some values are negative due to high background.

The test system of series [3] is MRL/lpr mice. Kind of series: Survival / mortality, MRL/lpr mice (Example 1). The following applies: for EOS survival, true EOS mouse percentage from starting population: vehicle 92. Here is the method:
Six week old lupus-prone, female, MRL/lpr (Jackson Labs, #000485) and non-lupus prone control MRL/MpJ (Jackson Labs, #000486) mice are obtained from Jackson Laboratories (Bar Harbor, Me.) at 6-weeks of age. All mice are maintained on a 24 hour light/dark cycle, with food and water available ad libitum. All experimental animal procedures are approved by and in accordance to the regulations of the Institutional Animal Care and Use Committee (IACUC) of Cephalon, Inc; approved IACUC protocol #03-040 and #03-03-041.
Due to this impaired tolerance mechanism, a percentage of all T and B cells that enter the periphery have a high likelihood of responding to self protein/tissues and thus initiate autoimmunity early in life. The MRL/lpr model mice develop several chronic inflammatory disease-like symptoms that are characteristic of early and late lupus including the generation of anti-nuclear antibodies, arthritis, dermatological manifestations, immunocomplex-mediated glomerulonephritis leading to proteinuria and eventual death. Lesser characterized phenomenon are CNS and cardiac manifestations, both of which are more common in humans. […] Mortality is higher in the females and occurs around 25 weeks of age, renal disease includes glomerulonephritis, glomerular infiltrates, sclerosis and vasculitis. Both splenomegaly and lymphomegaly associated with dermatitis can also be observed.
MRL/lpr mice are first randomized, initial bleeds collected, and body weights recorded for baseline measurements (FIG. 1). All mice are individually ear tagged and are monitored throughout the entire experiment (e.g., “Group#-Cage letter-Mouse#”, so “3B5”=Group 3 (G3), cage B, mouse #5). Mice are age-matched and treatment started at 6-8 weeks of age. Cheek bleeds and urine collection continues weekly throughout the experiment. Mice are individually tracked for several parameters including cytokine and ANA levels, proteinuria, body mass, lymphomegaly, general health, and mortality. All parameters are evaluated bi-monthly except mortality which is monitored daily. All groups consist of a minimum of at least 10-12 mice per group. Ex vivo experiments include flow cytometry analyses for plasma cells, serum complement C3 and ANA levels; urine protein and leukocytes, serum cytokine profiling, renal histo pathology, and determination of compound levels (pharmacokinetics (PK)) in the spleen, kidney and plasma. Mice are tracked on an individual basis. For all data, mice are grouped into populations and data graphed as mean±SEM. End-stage readouts are analyzed as described in the MATERIALS AND METHODS section (above) and in FIG. 1.
Vehicle alone is provided orally twice weekly (p.o.). Both proteasome inhibitors are suspended in the vehicle solution. Bi-monthly bleeds and urine are collected and frozen at […] until assayed. End analyses include kidney histology, splenocyte B-cell Elispots, flow cytometry for B and T cell populations, PD markers, serum cytokines, antibody and complement levels. In addition, urine proteinuria is determined for all animals.
In group two (G2), COMPOUND A was administered at a dose of 3 mg/kg iv twice weekly. In group three (G3), COMPOUND A was administered at a dose of 10 mg/kg p.o. twice weekly. […] In the new group five (G5), bortezomib was administered at a dose of 0.3 mg/kg iv twice weekly. Dexamethasone was administered at a dose of 1.5 mg/kg/2d (M, W, F) ip. Vehicle was 3% DMSO/10% Solutol/87% PBS. In those instances in which mice could not be injected via the iv route, agents were administered ip as noted in Table 1.

Series [4] relates to MRL/lpr mice. Kind of series: Spleen plasma cells by flow cytometry, MRL/lpr mice.

Take `CC(C)C[C@H](NC(=O)[C@@H](NC(=O)c1cccc(-c2ccccc2)n1)[C@@H](C)O)B(O)O` [COMPOUND A, [(1R)-1-[[(2S,3R)-3-hydroxy-2-[6-phenyl-pyridine-2-carbonyl)amino]-1-oxobutyl]amino]-3-methylbutylboronic acid]: in series [1] (G1 3 mg/kg 1× wk ip), the “p, serum C3 complement levels vs G6 Bortezomib 0.3 mg/kg 2× wk ip” value is recorded as “p < 0.01”. Moreover, the “p, serum C3 complement levels vs G7 CTX 50 mg/kg 1× wk ip” value is “p < 0.001” in series [1] (G1 3 mg/kg 1× wk ip) and “p < 0.05” in series [1] (G2 3 mg/kg 2× wk ip). Besides, the “p, serum C3 complement levels vs G9 Vehicle 2× wk po” value in series [1] (G1 3 mg/kg 1× wk ip) was “p < 0.05”. The “Serum C3 complement AUC, percent change vs vehicle” value in series [1] (G1 3 mg/kg ip, 1× wk) was determined as 45%; in series [1] (G2 3 mg/kg ip, 2× wk) it was 32%. For the same molecule, the “serum C3 increase above vehicle” value in series [1] (once weekly) came to 45%. The “anti-chromatin ASC decrease vs vehicle” value in series [2] (COMPOUND A groups) was 96-100%. Also, the “p, frequency of anti-chromatin antibody secreting cells in spleen vs G5 Bortezomib 0.3 mg/kg 1× wk ip” value was “p < 0.001” in series [2] (G1 3 mg/kg 1× wk ip) and “P < 0.01” in series [2] (G2 3 mg/kg 2× wk ip). Besides, the “p, frequency of anti-chromatin antibody secreting cells in spleen vs G6 Bortezomib 0.3 mg/kg 2× wk ip” value in series [2] (G1 3 mg/kg 1× wk ip) is “p < 0.01”; in series [2] (G2 3 mg/kg 2× wk ip) it was “p < 0.05”. Also, in series [2] (G1 3 mg/kg 1× wk ip), the “p, frequency of anti-chromatin antibody secreting cells in spleen vs G8 Dex 1.5 mg/kg 3× wk ip” value is “p < 0.01”. Besides, the “p, frequency of anti-chromatin antibody secreting cells in spleen vs G9 Vehicle 1× wk ip” value in series [2] (G1 3 mg/kg 1× wk ip) and in series [2] (G2 3 mg/kg 2× wk ip) was “p < 0.01” throughout. The “p, frequency of total IgG antibody secreting cells in spleen vs G5 Bortezomib 0.3 mg/kg 1× wk ip” value is listed as “p < 0.01” in series [2] (G1 3 mg/kg 1× wk ip) and “p < 0.001” in series [2] (G2 3 mg/kg 2× wk ip). Besides, the “p, frequency of total IgG antibody secreting cells in spleen vs G7 CTX 50 mg/kg 1× wk ip” value in series [2] (G1 3 mg/kg 1× wk ip) and in series [2] (G2 3 mg/kg 2× wk ip) was “p < 0.01” in each case. Besides, the “p, frequency of total IgG antibody secreting cells in spleen vs G8 Dex 1.5 mg/kg 3× wk ip” value in series [2] (G1 3 mg/kg 1× wk ip) and in series [2] (G2 3 mg/kg 2× wk ip) was “p < 0.01” in each case. The results for the “p, frequency of total IgG antibody secreting cells in spleen vs G9 Vehicle 1× wk ip” value in series [2] (G1 3 mg/kg 1× wk ip) and in series [2] (G2 3 mg/kg 2× wk ip) were “p < 0.05” and “p < 0.01”, respectively. Besides, the “ASC chromatin EOS, percent change vs vehicle” value was −96% in series [2] (G1 3 mg/kg ip, 1× wk) and −100% in series [2] (G2 3 mg/kg ip, 2× wk). In addition, the “ASC total IgG EOS, percent change vs vehicle” value was −62% in series [2] (G1 3 mg/kg ip, 1× wk) and −67% in series [2] (G2 3 mg/kg ip, 2× wk). In addition, the “total IgG producing ASC decrease vs vehicle” value in series [2] (spleen) was 62-67%. The “increase in survival over that of vehicle” value in series [3] (0.3 mg/kg iv twice weekly regimen (so in the source)) stood at 8.4%; in series [3] (0.3 mg/kg once weekly regimen (so in the source)), 5%; in series [3] (10 mg/kg oral, twice weekly regimen) it was 8.4%. The “EOS survival, true EOS mouse percentage from starting population” value (shortened to “EOS survival, true EOS mouse percentage”) is 87% in series [3] (G1: 3 mg/kg iv, 1× wk); 100% in series [3] (G2: 3 mg/kg iv, 2× wk); 100% in series [3] (G3: 10 mg/kg po, 2× wk). In addition, the “animal mortality (mice dead out of total)” value in series [3] (initial G1 dose 4 mg/kg iv once weekly, at day 71) is reported as 4 out of 15. In addition, the “EOS plasma cells, percent change vs vehicle” value was −67% in series [4] (G1: 3 mg/kg iv, 1× wk); −67% in series [4] (G2: 3 mg/kg iv, 2× wk); −67% in series [4] (G3: 10 mg/kg po, 2× wk). Besides, the “spleen plasma cells decrease vs vehicle” value in series [4] (Groups 1-3 (each)) is listed as 67%.

For the molecule `CC(C)C[C@H](NC(=O)[C@H](Cc1ccccc1)NC(=O)c1cnccn1)B(O)O` [bortezomib, reference compound], the “Serum C3 complement AUC, percent change vs vehicle” value is listed as 8% in series [1] (G3 0.3 mg/kg ip, 1× wk) and −11% in series [1] (G4 0.3 mg/kg ip, 2× wk). In addition, the “ASC chromatin EOS, percent change vs vehicle” value in series [2] (G3 0.3 mg/kg ip, 1× wk) is given as −46%; in series [2] (G4 0.3 mg/kg ip, 2× wk), −74%. Besides, the “ASC total IgG EOS, percent change vs vehicle” value was −1% in series [2] (G3 0.3 mg/kg ip, 1× wk) and −31% in series [2] (G4 0.3 mg/kg ip, 2× wk). Further, the “decrease in survival over that of vehicle at EOS” value in series [3] (0.3 mg/kg iv twice weekly) amounted to 19%; in series [3] (0.5 mg/kg iv once weekly), 2%. The “EOS survival, true EOS mouse percentage” value was determined as 90% in series [3] (G4: 0.5 mg/kg iv, 1× wk) and 73% in series [3] (G5: 0.3 mg/kg iv, 2× wk). Moreover, in series [3] (initial G4 dose 0.5 mg/kg iv twice weekly), the “tolerability of initial dose” value is recorded as “animal mortality”. For the same molecule, the “EOS plasma cells, percent change vs vehicle” value is recorded as −67% in series [4] (G4: 0.5 mg/kg iv, 1× wk) and −33% in series [4] (G5: 0.3 mg/kg iv, 2× wk). Moreover, the results for the “spleen plasma cells decrease vs vehicle” value in series [4] (Group 4) and in series [4] (Group 5) were 66% and 33%, respectively.

For the molecule `C[C@@H]1C[C@H]2[C@@H]3CCC4=CC(=O)C=C[C@]4(C)[C@@]3(F)[C@@H](O)C[C@]2(C)[C@@]1(O)C(=O)CO` [dexamethasone, Dexamethasone, reference compound], the “Serum C3 complement AUC, percent change vs vehicle” value in series [1] (G5 1.5 mg/kg ip, 3× wk) came to 45%. For the same molecule, in series [1] (G8 1.5 mg/kg 3× wk ip), the “p, serum C3 complement levels vs G6 Bortezomib 0.3 mg/kg 2× wk ip” value was “p < 0.05” and the “p, serum C3 complement levels vs G7 CTX 50 mg/kg 1× wk ip” value is reported as “p < 0.01”. Also, in series [2] (G5 1.5 mg/kg ip, 3× wk), the “ASC chromatin EOS, percent change vs vehicle” value is −42% and the “ASC total IgG EOS, percent change vs vehicle” value was “+19%”. Further, in series [2] (G8 1.5 mg/kg 3× wk ip), the “p, frequency of total IgG antibody secreting cells in spleen vs G7 CTX 50 mg/kg 1× wk ip” value was “p < 0.01”. Further, the “EOS survival, true EOS mouse percentage” value in series [3] (G6: 1.5 mg/kg ip, 3× wk) stood at 83%. For the same molecule, the “EOS plasma cells, percent change vs vehicle” value in series [4] (G6: 1.5 mg/kg ip, 3× wk) was “+25%”.
